The results in this text go back to US12678451B2, “Cannabinoid and omega fatty acid compositions and methods of using” (GreenWay Herbal Products, LLC, priority 2019, dated 2026).

One test is described as follows: DPPH antioxidant assay. Format: biochemical. Conditions: 100 μM; for % RSA (radical scavenging activity): 1 hour. As for the experimental part:
The ability of the cannabinoids to act as potential antioxidants was assessed using the 2,2-diphenyl-1-picrylhydrazyl (DPPH) antioxidant assay. The cannabinoids CBDA, CBD, CBDVA, CBDV, CBG, THCV, and the 1:1 CBD:CBDA mixture had the highest antioxidant activities with radical scavenging activities of 38.19%, 48.00%, 43.81%, 44.21%, 44.28%, 45.71%, and 43.74%, respectively.
The 2,2-diphenyl-1-picrylhydrazyl (DPPH) free radical (Alfa Aesar) was prepared at 0.1 mM in ethanol. The cannabinoids were tested at a final concentration of 100 uM. 2 uL of 7.5 mM stock solutions of the cannabinoids to be tested in DMSO were added to 148 uL of 0.1 mM DPPH to achieve a final concentration of 100 μM in the assay. Ascorbic acid (Thermo Scientific) at a final concentration of 10 mg/ml was used as a positive control. The reaction mixture was incubated in the dark at room temperature for 1 hour, the absorbance of the mixture was read at 517 nm using a Spectra Max 5M microplate reader (Molecular Devices, LLC, Sunnyvale, Calif., USA) and the absorbance was converted to percent radical scavenging activity (% RSA) using the following formula: % RSA=[(Absorbance of the control−Absorbance of the sample)/(Absorbance of the control)]×100.
Free radical production occurs when the immune system is activated and antioxidants represent potential effective treatments for inflammatory conditions and autoimmune diseases. […] The DPPH antioxidant assay can be used to measure the ability of a compound to scavenge free radicals by measuring the ability of compounds to hydrogenate and reduce DPPH. The DPPH assay was conducted on CBCA, CBDA, CBDVA, CBGA, CBLA, CBNA, THCVA, and their decarboxylated derivatives as well as the 1:1 CBD:CBDA mixture.
(In general: The DPPH test is a chemical assay of radical scavenging.)

The test system of test [1] is cytokines induced in mice by LPS. Nature of the test: Mouse LPS cytokine animal model (Example 3), cannabinoids in PB with 5% DMSO. It is filed as in vivo. The following applies: 5 mg/kg. The method, then: This experiment was conducted to compare the ability of CBD, CBDA or the 1:1 equimolar mixture of CBD:CBDA to suppress the induction of cytokines whose expression levels were induced in mice by LPS.
The ability of agents to suppress the immune system can be tested in vivo using an LPS mouse model, in which mice are injected with LPS to cause an immune response (Field et al., 1970; Ghezzi P and Sipe J D, 1988).
Four 20 g female C57BL/6 mice were used per group. The experimental mice were first injected with 0.1 mL of the cannabinoids prepared at 1 mg/mL in phosphate buffer (PB) with 5% DMSO to yield a final dose of 5 mg/kg, followed one hour later by the injection of 0.1 mL of 0.02 mg/mL LPS in PB to yield a final dose of 0.1 mg/kg. Mice injected with 0.1 mL of PB with 5% DMSO and 0.1 mL of PBS served as a non-induced control and mice injected with 0.1 mL of PB with 5% DMSO and 0.1 mL of 0.02 mg/mL LPS in PB served as a LPS untreated control. After allowing two hours for the immune system to be induced by LPS, the mice were then euthanized, heart punctures performed to extract the blood, which was allowed to coagulate on ice for 1 hour before centrifuging to isolate the serum. The levels of 32 of the most common mouse cytokines (Eve Technologies, Calgary, Canada, Table 9) were determined by multi-plex analysis.

Test [2] has as its system differentiated U-937 cells. The test can be described thus: Human cellular U-937 autophagy induction assay (anti-LC3). It is filed as cell-based. The following applies: for Fluorescence (LC3): 1.0 μM, 12 hours; for activation at 1 µM: Homo sapiens, U-937, 12 h, read-out: Induction of autophagy with respect to the untreated control. As for the experimental part: The induction of autophagy was monitored using anti-LC3 antibodies to detect LC3 on the autophagosome in human U-937 pro-monocytic histiocytic lymphoma cells (ATCC, Manassas, Va., USA), which generate morphologies characteristic of macrophages upon induction by various stimuli. U-937 cells were cultured in RPMI-1640 medium with L-glutamine and sodium bicarbonate (Sigma-Aldrich, St Louis, Mo.) supplemented with 10% fetal bovine serum (FBS) and 1% penicillin in 25 cm2 tissue flasks at 37° C. in a 5% CO2 humidified atmosphere and passaged every 2-3 days. U-937 cells were seeded in 96 well plates at 5×10^5 cells/mL and stimulated with 100 ng/mL PMA to induce differentiation for 24 hours. The cells were then treated with the various cannabinoids at 1.0 μM concentrations for 12 hours. 30 μM chloroquine was used as a positive control. After treatment, the cells were fixed using 3.7% formaldehyde in PBS for 15 minutes at room temperature and washed with PBS to remove the fixative. Permeabilization reagent (0.2% Triton X-100 in PBS) (Sigma-Aldrich) was added, the cells were incubated for 15 minutes at room temperature and then the cells were washed with PBS to remove the permeabilization reagent. LC3B rabbit polyclonal antibody (Invitrogen) was added at a final concentration of 0.5 μg/ml for 1 hour at room temperature and the cells were washed with PBS remove the primary antibody. Secondary conjugated goat anti-rabbit polyclonal antibody (Thermo Scientific) was then added at a final concentration of 2.0 μg/ml for 1 hour at room temperature. The cells were washed, Hoechst dye was added to stain the nucleus and the cells were imaged using an Arrayscan VTI high-content screening (HCS) reader (Thermo Scientific) with the appropriate filters and the data was analyzed using the vHCS Scan software.
Chloroquine at a concentration of 30 μM was included as a positive control. The ability to induce autophagy was determined as a percentage with respect to the untreated control.

For test [3], the system named is cytokine levels in differentiated THP-1 cells treated with LPS. The test can be described thus: THP-1 human cellular LPS cytokine assay, four independent experiments, per cytokine. Format: cell-based. The following applies: LPS 20 ng/mL.
Test [4] has the same test system. The test can be described thus: THP-1 human cellular LPS cytokine assay, three independent experiments, total averaged suppression. The following applies: for inhibition at 2 µM: Homo sapiens, THP-1, 4 h, read-out: % Cytokine Suppression (total averaged).
Protocol: Cells were seeded onto 24-, or 12-well plates and incubated for 48 hours to 72 hours to allow for differentiation. […] Supernatants were collected for quantification of human cytokine levels to assess the cytokine response. Cells remaining after the supernatant collection were tested to ensure they had at least 90% viability as determined by Alamar Blue assays. To conduct the Alamar Blue assays, supernatants were replaced with culture medium containing 1× Alamar Blue reagent and incubated overnight. Cell viability was assessed by measuring relative fluorescent units (RFU) on the SpectraMax M2e microplate reader (Molecular Devices Inc., Sunnyvale, Calif., USA) at Excitation 560 nm and Emission 590 nm. Controls included untreated cells with DMSO at the same concentration as the treated cells, LPS stimulated cells with DMSO at the same concentration as the treated cells and LPS stimulated cell with the various treatments. The levels of 42 of the most common human cytokines (Eve Technologies, Calgary, Canada Table 6) were determined by multi-plex analysis.
For this reason, the level of cytokine suppression was determined for each cytokine by each cannabinoid that was tested and the total averaged suppression for each cannabinoid was determined by dividing the total suppression by the number of the cytokines that were analyzed.

SMILES strings stand for the structures.

On to `C=C(C)[C@@H]1CCC(C)=C[C@H]1c1c(O)cc(CCCCC)c(C(=O)O)c1O` [CBDA, 2,4-Dihydroxy-3-[(1R,6R)-6-isopropenyl-3-methyl-2-cyclohexen-1-yl]-6-pentylbenzoic acid], for which, in the test “DPPH antioxidant assay”, the “radical scavenging activity compared to the untreated control” value is recorded as “at least two-fold” and the “% RSA (radical scavenging activity)” value amounted to 38.19%. In test [1], this compound returned an Average cytokine suppression of 13.71%, a GM-CSF suppression of 27.86%, an IFNγ suppression of 31.60% and an IL-1β suppression of 11.89%. For the same compound, in test [1], the IL-2 suppression amounted to 7.82%, the IL-6 suppression amounted to 6.09%, the “IL-12β p40 suppression” value was 58.93% and the IL-13 suppression was 4.16%. In test [1], this compound had an IL-17 suppression of 7.86%, an IP-10 suppression of 4.58%, a KC suppression of 18.15% and an LIF suppression of 28.12%. For the same compound, in test [1], the M-CSF suppression is listed as −51.56%, the MIP-1α suppression is recorded as 14.86%, the MIP-1β suppression was 9.12% and the MIP-2 suppression stood at 20.19%. Also, the TNF-α suppression in test [1] is given as 19.69%. For the same compound, in test [2], the “Fluorescence (LC3)” value is reported as 37.64 and the activation at 1 µM is -22%. In addition, in test [3] (2 µM), the EGF suppression amounted to 5.34%, the FGF-β suppression is listed as 30.37%, the Flt-3L suppression was found to be 47.81% and the G-CSF suppression worked out at 77.66%. For the same compound, in test [3] (2 µM), the GM-CSF suppression amounted to 43.68%, the IFNγ suppression is recorded as 60.44%, the IL-1α suppression is recorded as 44.04% and the IL-1β suppression is recorded as 53.82%. In test [3] (2 µM), the IL-4 suppression came to 10.49%, the IL-6 suppression was 69.39%, the IL-7 suppression amounted to 37.62% and the IL-10 suppression worked out at 23.20%. Besides, in test [3] (2 µM), the “IL-12 p70 suppression” value was 8.24%, the IL-15 suppression turned out to be 47.99%, the IL-18 suppression amounted to 37.34% and the IP-10 suppression turned out to be 73.87%. For the same compound, in test [3] (2 µM), the MCP-1 suppression is on record as 54.97%, the MIP-1β suppression is on record as 47.92%, the TNFα suppression is on record as 28.56% and the TNFβ suppression is 45.83%. Besides, the Average cytokine suppression in test [3] is on record as 42.43%. In test [4], the “effectiveness at reducing elevated cytokine levels relative to dexamethasone” value is given as “at least half as effective as dexamethasone” and the inhibition at 2 µM came to 37.2%.
Regarding `CCCCCc1cc2c(c(O)c1C(=O)O)[C@@H]1[C@H]3[C@H](CC[C@@]3(C)O2)C1(C)C` [CBLA, (1aS,3aR,8bR,8cR)-8-Hydroxy-1,1,3a-trimethyl-6-pentyl-1a,2,3,3a,8b,8c-hexahydro-1H-4-oxabenzo[f]cyclobuta[cd]indene-7-carboxylic acid], the “% RSA (radical scavenging activity)” value in “DPPH antioxidant assay” came out at 21.18%. For the same compound, in test [2], the “Fluorescence (LC3)” value is 72.27 and the activation at 1 µM worked out at 49.8%. For the same compound, in test [4], the “effectiveness at reducing elevated cytokine levels relative to dexamethasone” value is “at least half as effective as dexamethasone” and the inhibition at 2 µM turned out to be 34.4%.
The matching figures for `CCCCCc1cc(O)c2c(c1)OC(C)(C)c1ccc(C)cc1-2` [CBN, 6,6,9-Trimethyl-3-pentyl-6H-benzo[c]chromen-1-ol]: 33.83%, 40.80, -15.4%, “at least half as effective as dexamethasone” and 37%.
With `CCCCCc1cc2c(c(O)c1C(=O)O)-c1cc(C)ccc1C(C)(C)O2` [CBNA, 1-Hydroxy-6,6,9-trimethyl-3-pentyl-6H-benzo[c]chromene-2-carboxylic acid], in “DPPH antioxidant assay”, the “% RSA (radical scavenging activity)” value turned out to be 24.92%. Also, in test [2], the “Fluorescence (LC3)” value stood at 36.89 and the activation at 1 µM is -23.5%. Further, in test [4], the “effectiveness at reducing elevated cytokine levels relative to dexamethasone” value was “at least half as effective as dexamethasone” and the inhibition at 2 µM was 34%.
In the case of `CCCc1cc(O)c2c(c1)OC(C)(C)[C@@H]1CCC(C)=C[C@@H]21` [THCV, (6aR,10aR)-6,6,9-trimethyl-3-propyl-6H,6aH,7H,8H,10aH-benzo[c]isochromen-1-ol], in the test “DPPH antioxidant assay”, the “radical scavenging activity compared to the untreated control” value is recorded as “at least two-fold” and the “% RSA (radical scavenging activity)” value is 45.71%. Moreover, in test [2], the “Fluorescence (LC3)” value worked out at 42.14 and the activation at 1 µM was -12.7%. Also, in test [4], the “effectiveness at reducing elevated cytokine levels relative to dexamethasone” value is “at least half as effective as dexamethasone” and the inhibition at 2 µM was 34.8%.
As for `CCCc1cc2c(c(O)c1C(=O)O)[C@@H]1C=C(C)CC[C@H]1C(C)(C)O2` [THCVA, (6aR,10aR)-6a,7,8,10a-tetrahydro-1-hydroxy-6,6,9-trimethyl-3-propyl-6H-Dibenzo[b,d] pyran-2-carboxylic acid], the “% RSA (radical scavenging activity)” value in “DPPH antioxidant assay” is listed as 29.22%. In test [2], the “Fluorescence (LC3)” value is listed as 66.45 and the activation at 1 µM came to 37.7%. In addition, in test [4], the “effectiveness at reducing elevated cytokine levels relative to dexamethasone” value is reported as “at least half as effective as dexamethasone” and the inhibition at 2 µM was determined as 28.4%.
